The results in this text go back to ChEMBL document CHEMBL5723379, “Affinity On-target Cellular Literature for EUbOPEN Chemogenomic Library” (2024).

The Ki is the dissociation constant of the complex between target and ligand, obtained from inhibition or displacement. Low readings indicate a stronger hold on the target, high ones a looser hold on the target. A word on the IC50: it is the concentration at which inhibition is half-maximal. Low readings indicate higher potency, high ones lower potency.

Some results are limits rather than exact numbers.

Experiment [1] has as its target T1, Acid ceramidase (Homo sapiens, UniProt Q13510). Kind of experiment: Affinity On-target Cellular interaction: (Inhibition of ASAH1 in A375 cell lysates overexpressing ASAH1) EUB0002723a ASAH1. It is filed as functional, subcellular, A-375. On the set-up: mode of action Inhibitor, recommended concentration 1 uM.
The target in experiment [2] is Sodium- and chloride-dependent glycine transporter 1 (Homo sapiens, UniProt P48067). The experiment is described as follows: Affinity On-target Cellular interaction: (Inhibition of [14C]glycine uptake in human neuroblastoma cells transfected with SLC6A9) EUB0002626aCl SLC6A9. On the set-up: mode of action Inhibitor, recommended concentration 1 uM. It is filed as functional, cell-based, BE(2)-C.

The target of experiment [3] is Sodium/hydrogen exchanger 3 (Homo sapiens, UniProt P48764). Kind of experiment: Affinity On-target Cellular interaction: (Inhibition of Na+/H+ exchange, detection of fluorescence changes in acridine orange pH indicator, mouse fibroblast L cell line) EUB0002709aCl SLC9A3. The experiment is classed as functional, cell-based, LAP1. The arrangement: mode of action Inhibitor, recommended concentration 1 uM.

Experiment [4] deals with T1, Acid ceramidase. Kind of experiment: Affinity On-target Cellular interaction: (Inhibition of ASAH1 in A375 cell lysates overexpressing ASAH1) EUB0002722a ASAH1. The experiment is classed as functional, subcellular, A-375. On the set-up: mode of action Inhibitor, recommended concentration 1 uM.
For experiment [5], the target named is Zinc transporter SLC39A7 (Homo sapiens, UniProt Q92504). Kind of experiment: Affinity On-target Cellular interaction: (HES-LUC reporter gene assay, U2OS cells) EUB0002669a SLC39A7. On the set-up: mode of action Inhibitor, recommended concentration 1 uM. It is filed as functional, cell-based. (Reporter assays use an easily measured gene product as a stand-in for the process of interest.)

The target of experiment [6] is T2, Monocarboxylate transporter 4 (Homo sapiens, UniProt O15427). Kind of experiment: (§1) Affinity On-target Cellular interaction: (Inhibition of lactate import in MDA-MB-231 cells) EUB0002761a SLC16A3. It is filed as functional, cell-based. On the set-up: mode of action Inhibitor, recommended concentration 1 uM.
For experiment [7], the target named is T2, Monocarboxylate transporter 4. The experiment is described as §1. The arrangement: mode of action Inhibitor, recommended concentration 1 uM. The experiment is classed as functional, cell-based. This is another data set of the same source.
For experiment [8], the target named is Poly [ADP-ribose] polymerase 1 (Homo sapiens, UniProt P09874). Kind of experiment: Affinity On-target Cellular interaction: (Inhibition of H2O2 induced PAR formation in Capan-1 cells) EUB0002633aCl PARP1. It is filed as functional, cell-based. The arrangement: mode of action Inhibitor, recommended concentration 1 uM.
Experiment [9] has as its target Monocarboxylate transporter 8 (Homo sapiens, UniProt P36021). Kind of experiment: Affinity On-target Cellular interaction: (Inhibition of radiolabelled [125I]T3 uptake by target expressed in MDCK1 cells) EUB0002712a SLC16A2. It is filed as functional, cell-based, MDCK-I. On the set-up: mode of action Inhibitor, recommended concentration 1 uM.
Experiment [10] has as its target Na(+)/citrate cotransporter (Homo sapiens, UniProt Q86YT5). The experiment is described as follows: Affinity On-target Cellular interaction: (Radiolabelled uptake assay with […], HEK293 cells) EUB0002721a SLC13A5. It is filed as functional, cell-based. On the set-up: mode of action Inhibitor, recommended concentration 1 uM.
For experiment [11], the target named is Monoacylglycerol lipase ABHD6 (Homo sapiens, UniProt Q9BV23).
The target in experiment [12] is Sodium/hydrogen exchanger 1 (Homo sapiens, UniProt P19634). Kind of experiment: Affinity On-target Cellular interaction: ([Na+]uptake assay, PS-120 fibroblasts) EUB0002781aCl SLC9A1. The experiment is classed as functional, cell-based, PS120. On the set-up: mode of action Inhibitor, recommended concentration 1 uM.
Experiment [13] deals with T3, Dipeptidyl peptidase 2 (Homo sapiens, UniProt Q9UHL4). Kind of experiment: (§2) Affinity On-target Cellular interaction: (inhibition of fluorogenic substrate cleavage, U937 cell) EUB0002750aCl DPP7. It is filed as functional, cell-based, U-937. On the set-up: mode of action Inhibitor, recommended concentration 1 uM.
The target in experiment [14] is T3, Dipeptidyl peptidase 2. Described as §2. The experiment is classed as functional, cell-based, U-937. The arrangement: mode of action Inhibitor, recommended concentration 1 uM. This is another data set of the same source.

T1 sequence (Q13510 22-142 limits assumed): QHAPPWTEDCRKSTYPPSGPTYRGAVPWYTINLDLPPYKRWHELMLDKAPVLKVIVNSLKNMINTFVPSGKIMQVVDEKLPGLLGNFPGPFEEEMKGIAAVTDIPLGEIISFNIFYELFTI
T1 sequence (Q13510 143-395 limits assumed): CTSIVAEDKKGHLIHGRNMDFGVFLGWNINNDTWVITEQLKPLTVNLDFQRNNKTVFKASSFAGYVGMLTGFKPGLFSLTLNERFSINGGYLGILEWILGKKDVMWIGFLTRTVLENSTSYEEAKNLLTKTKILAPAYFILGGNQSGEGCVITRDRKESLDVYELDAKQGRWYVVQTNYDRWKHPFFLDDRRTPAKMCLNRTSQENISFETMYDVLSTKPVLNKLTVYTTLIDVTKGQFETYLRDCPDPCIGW
T2 sequence (O15427 whole entry): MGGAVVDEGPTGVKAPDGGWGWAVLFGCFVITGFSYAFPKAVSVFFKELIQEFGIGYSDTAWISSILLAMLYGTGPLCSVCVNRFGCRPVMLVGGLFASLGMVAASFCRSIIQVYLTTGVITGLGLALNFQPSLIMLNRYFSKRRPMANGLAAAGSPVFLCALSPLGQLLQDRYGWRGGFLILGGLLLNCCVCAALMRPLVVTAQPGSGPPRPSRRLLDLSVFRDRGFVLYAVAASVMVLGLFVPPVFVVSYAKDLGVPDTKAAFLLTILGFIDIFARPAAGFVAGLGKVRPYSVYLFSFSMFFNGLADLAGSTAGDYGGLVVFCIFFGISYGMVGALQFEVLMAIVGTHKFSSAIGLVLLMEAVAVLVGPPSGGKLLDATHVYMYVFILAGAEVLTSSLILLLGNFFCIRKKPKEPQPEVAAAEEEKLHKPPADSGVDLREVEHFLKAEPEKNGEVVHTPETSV
Sequence of Monoacylglycerol lipase ABHD6 (Q9BV23 whole entry): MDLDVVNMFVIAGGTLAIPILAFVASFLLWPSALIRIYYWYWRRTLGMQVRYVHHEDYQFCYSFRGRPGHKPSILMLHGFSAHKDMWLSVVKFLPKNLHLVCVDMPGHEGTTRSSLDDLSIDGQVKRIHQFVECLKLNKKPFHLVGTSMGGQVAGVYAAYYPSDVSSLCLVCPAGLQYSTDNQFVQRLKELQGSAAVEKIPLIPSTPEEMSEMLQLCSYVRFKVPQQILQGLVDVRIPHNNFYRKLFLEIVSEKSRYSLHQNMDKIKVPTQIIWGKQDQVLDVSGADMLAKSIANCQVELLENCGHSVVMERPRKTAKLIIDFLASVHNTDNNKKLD
Sequence of Poly [ADP-ribose] polymerase 1 (P09874 whole entry): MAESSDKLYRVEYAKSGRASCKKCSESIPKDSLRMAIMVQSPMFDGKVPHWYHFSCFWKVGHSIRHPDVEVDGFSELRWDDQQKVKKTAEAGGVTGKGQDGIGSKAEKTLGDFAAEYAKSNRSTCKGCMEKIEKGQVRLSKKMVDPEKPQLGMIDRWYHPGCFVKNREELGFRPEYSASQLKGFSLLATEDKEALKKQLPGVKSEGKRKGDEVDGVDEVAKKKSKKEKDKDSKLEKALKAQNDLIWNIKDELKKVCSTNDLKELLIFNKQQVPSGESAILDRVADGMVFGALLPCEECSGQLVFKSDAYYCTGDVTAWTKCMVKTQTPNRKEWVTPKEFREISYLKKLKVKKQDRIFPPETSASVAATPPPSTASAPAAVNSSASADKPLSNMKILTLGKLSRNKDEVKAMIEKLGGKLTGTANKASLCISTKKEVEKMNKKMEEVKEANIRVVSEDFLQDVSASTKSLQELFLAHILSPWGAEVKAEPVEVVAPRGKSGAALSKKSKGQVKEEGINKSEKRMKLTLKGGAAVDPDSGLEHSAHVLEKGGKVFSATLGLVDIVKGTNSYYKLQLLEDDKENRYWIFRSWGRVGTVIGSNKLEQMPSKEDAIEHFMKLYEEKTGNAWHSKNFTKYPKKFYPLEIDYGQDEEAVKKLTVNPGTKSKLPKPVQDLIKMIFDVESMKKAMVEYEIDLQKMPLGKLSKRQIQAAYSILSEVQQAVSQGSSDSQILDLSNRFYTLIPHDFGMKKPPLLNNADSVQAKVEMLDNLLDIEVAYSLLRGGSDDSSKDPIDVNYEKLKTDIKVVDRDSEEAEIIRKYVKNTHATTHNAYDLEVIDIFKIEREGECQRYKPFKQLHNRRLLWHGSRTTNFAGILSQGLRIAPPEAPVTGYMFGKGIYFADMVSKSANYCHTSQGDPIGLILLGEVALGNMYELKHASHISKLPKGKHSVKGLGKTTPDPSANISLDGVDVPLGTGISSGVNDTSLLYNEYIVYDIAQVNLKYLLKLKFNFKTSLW
Sequence of Monocarboxylate transporter 8 (P36021 whole entry): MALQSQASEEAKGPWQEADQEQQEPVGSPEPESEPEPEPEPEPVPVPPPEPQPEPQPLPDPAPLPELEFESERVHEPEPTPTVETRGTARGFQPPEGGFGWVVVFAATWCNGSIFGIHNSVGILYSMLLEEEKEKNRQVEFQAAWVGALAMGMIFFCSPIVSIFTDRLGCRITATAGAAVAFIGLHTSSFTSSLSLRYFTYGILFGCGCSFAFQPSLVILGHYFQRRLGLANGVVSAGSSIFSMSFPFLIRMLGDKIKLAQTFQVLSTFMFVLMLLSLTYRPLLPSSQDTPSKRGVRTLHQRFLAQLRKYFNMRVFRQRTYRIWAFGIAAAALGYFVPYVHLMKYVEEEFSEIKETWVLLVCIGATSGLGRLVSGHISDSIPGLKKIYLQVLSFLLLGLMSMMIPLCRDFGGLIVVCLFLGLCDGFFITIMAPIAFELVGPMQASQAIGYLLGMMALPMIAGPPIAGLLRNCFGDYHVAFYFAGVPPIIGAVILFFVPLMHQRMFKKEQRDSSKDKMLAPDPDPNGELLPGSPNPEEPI
Sequence of Zinc transporter SLC39A7 (Q92504 whole entry): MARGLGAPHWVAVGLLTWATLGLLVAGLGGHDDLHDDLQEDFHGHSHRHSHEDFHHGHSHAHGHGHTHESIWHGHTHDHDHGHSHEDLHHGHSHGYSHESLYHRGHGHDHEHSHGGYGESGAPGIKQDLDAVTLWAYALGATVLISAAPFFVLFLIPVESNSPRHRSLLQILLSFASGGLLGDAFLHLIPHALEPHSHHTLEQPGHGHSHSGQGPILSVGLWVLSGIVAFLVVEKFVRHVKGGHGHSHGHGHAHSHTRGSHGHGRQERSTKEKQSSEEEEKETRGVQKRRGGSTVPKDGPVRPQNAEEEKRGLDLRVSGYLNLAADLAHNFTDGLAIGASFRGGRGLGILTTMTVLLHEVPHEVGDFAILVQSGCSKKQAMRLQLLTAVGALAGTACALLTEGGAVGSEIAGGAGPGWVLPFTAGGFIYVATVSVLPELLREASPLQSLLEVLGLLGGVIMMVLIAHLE
Sequence of Na(+)/citrate cotransporter (Q86YT5 whole entry): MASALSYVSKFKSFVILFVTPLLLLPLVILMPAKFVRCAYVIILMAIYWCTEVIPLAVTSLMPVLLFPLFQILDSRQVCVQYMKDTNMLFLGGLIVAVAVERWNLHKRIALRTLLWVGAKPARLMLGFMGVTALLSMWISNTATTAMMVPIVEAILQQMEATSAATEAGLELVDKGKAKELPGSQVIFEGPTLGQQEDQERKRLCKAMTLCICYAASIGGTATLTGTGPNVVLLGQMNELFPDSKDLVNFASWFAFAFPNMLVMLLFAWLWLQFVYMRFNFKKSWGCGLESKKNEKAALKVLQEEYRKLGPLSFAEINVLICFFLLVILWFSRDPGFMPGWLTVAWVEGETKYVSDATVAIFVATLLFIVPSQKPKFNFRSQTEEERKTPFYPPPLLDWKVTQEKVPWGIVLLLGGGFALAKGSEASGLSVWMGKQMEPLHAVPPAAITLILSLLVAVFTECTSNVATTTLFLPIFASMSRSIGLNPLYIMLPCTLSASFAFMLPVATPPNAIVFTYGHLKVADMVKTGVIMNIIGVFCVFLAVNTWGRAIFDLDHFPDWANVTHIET
Sequence of Sodium/hydrogen exchanger 3 (P48764 whole entry): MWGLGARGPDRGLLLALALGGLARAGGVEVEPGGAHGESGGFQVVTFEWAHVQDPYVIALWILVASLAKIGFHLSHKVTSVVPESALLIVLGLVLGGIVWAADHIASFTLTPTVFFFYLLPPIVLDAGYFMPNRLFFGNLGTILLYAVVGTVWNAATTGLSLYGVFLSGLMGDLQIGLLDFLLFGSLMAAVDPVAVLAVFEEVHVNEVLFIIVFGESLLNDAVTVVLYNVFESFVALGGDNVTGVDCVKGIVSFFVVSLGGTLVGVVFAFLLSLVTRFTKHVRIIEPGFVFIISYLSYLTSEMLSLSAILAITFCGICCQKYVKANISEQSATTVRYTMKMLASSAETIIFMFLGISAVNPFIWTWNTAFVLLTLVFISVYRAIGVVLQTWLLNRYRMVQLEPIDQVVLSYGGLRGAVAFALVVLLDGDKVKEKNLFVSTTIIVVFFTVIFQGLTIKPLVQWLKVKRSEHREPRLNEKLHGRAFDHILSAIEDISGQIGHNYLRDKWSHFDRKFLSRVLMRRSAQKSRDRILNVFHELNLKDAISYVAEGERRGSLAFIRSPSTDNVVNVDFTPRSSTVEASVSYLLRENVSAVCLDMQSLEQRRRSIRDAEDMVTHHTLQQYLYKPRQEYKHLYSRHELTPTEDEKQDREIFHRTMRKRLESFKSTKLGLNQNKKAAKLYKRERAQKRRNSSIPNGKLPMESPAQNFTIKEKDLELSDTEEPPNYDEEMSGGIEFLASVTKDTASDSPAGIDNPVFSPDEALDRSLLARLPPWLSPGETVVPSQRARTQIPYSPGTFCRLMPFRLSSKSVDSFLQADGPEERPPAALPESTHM

In the case of `CCCCCCCCCCCCC/C=C/[C@@H](O)[C@H](CO)NC(=O)CCl`, the Ki in experiment [1] is 40.2 nM.

`CN(CCOc1ccc(-c2ccc3c(c2)OCO3)cc1C(C)(C)C)CC(=O)O` had an IC50 in [2] of 15.8 nM.

In experiment [3], `CC(=Cc1cc(C)ccc1C=C(C)C(=O)NC(=N)N)C(=O)N=C(N)N` gave an IC50 of 20 nM.

With `CCCCCCCCCCCCC/C=C/[C@@H](O)[C@H](CO)NC(=O)CBr`, the Ki in experiment [4] is 29.7 nM.

With `O=C1Nc2ccccc2C2(CCN(CC(Cc3ccccc3)Nc3nc4ccc(F)cc4s3)CC2)N1` (centres undefined), the IC50 in [5] was determined as 130 nM.

For `CC(C)(OCc1cc(-c2cccc(OC3CC3)c2)n(-c2ccccc2Cl)n1)C(=O)O`, the results for the IC50 in experiment [6] and in experiment [7] were 19 nM and 8.6 nM, respectively.

`CNCc1ccc(-c2cc3cc(F)cc(C(N)=O)c3o2)cc1` displayed an IC50 in [8] of 69.9 nM.

On to `COc1cc([C@@H]2Oc3c(O)cc([C@H]4Oc5cc(O)cc(O)c5C(=O)[C@@H]4O)cc3[C@H]2CO)ccc1O` [SILICRISTIN A], for which, in experiment [9], the IC50 amounted to 110 nM.

In [10], `O=C(NCc1ccc(Cl)cc1)C1CCN(S(=O)(=O)c2cc(Cl)cc(Cl)c2)CC1` displayed an IC50 above 100 µM.

With `O=C(c1cccc(-c2ccc(-c3cn(C(=O)N4CCCCC4c4ccccc4)nn3)cc2)c1)N1CCCCC1` (centres undefined), the half-maximal inhibitory concentration (IC50) in [11] is 0.21 nM.

In the case of `N=C(N)NC(=O)c1cnn(-c2cccc3ncccc23)c1C1CC1`, the IC50 in [12] amounted to 14 nM.

Turning to `N[C@@H](CCNCc1ccc(Cl)cc1)C(=O)N1CCCCC1`, the figures for the IC50 in experiment [13] and in [14] were 0.14 nM and 0.21 nM, respectively.
